Measurements: the supplement of paper PMC10307832

Tests used:
XMD8-85 + Luminespib = compound: CN1CCN(CC1)C2=CC(=C(C=C2)NC3=NC=C4C(=N3)N(C5=CC=CC=C5C(=O)N4C)C)OC [XMD8-85] + CCNC(=O)c1noc(-c2cc(C(C)C)c(O)cc2O)c1-c1ccc(CN2CCOCC2)cc1 [Luminespib] (partner 0.01 µM); assay: relative viability (nuclei count vs DMSO), 5 days (fraction); higher = more cells survive
In short: (§1)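 Lung cancer cell lines were seeded in 1536-well plates and dosed by pin tool the next day, with either a single drug or a fixed anchor-drug dose combined with five library-drug doses (not always all listed) spaced in √10 steps. Five days later, one step fixed the cells and stained their nuclei (final 0.05% Triton X-100, 1% formaldehyde, 1 ug/ml Hoechst), and nuclei were counted on 4× images. Relative viability is the nuclei count in treated wells divided by the count in vehicle wells, and each value is the median of duplicate plates.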

XMD8-85 + Dasatinib = compound: CN1CCN(CC1)C2=CC(=C(C=C2)NC3=NC=C4C(=N3)N(C5=CC=CC=C5C(=O)N4C)C)OC [XMD8-85] + Cc1nc(Nc2ncc(C(=O)Nc3c(C)cccc3Cl)s2)cc(N2CCN(CCO)CC2)n1 [Dasatinib] (partner 0.075 µM); assay: as above
In short: as §1

Row | Cell Line | relative viability (XMD8-85 + Luminespib; first compound 0.08 µM) | relative viability (XMD8-85 + Luminespib; first compound 0.253 µM) | relative viability (XMD8-85 + Luminespib; first compound 0.8 µM) | relative viability (XMD8-85 + Luminespib; first compound 2.53 µM) | relative viability (XMD8-85 + Luminespib; first compound 8 µM) | relative viability (XMD8-85 + Dasatinib; first compound 0.253 µM) | relative viability (XMD8-85 + Dasatinib; first compound 0.8 µM) | relative viability (XMD8-85 + Dasatinib; first compound 2.53 µM) | relative viability (XMD8-85 + Dasatinib; first compound 8 µM) | relative viability (XMD8-85 + Dasatinib; first compound 0.08 µM)
1 | 201T | 1.06 | 1.1 | 1.02 | 1.03 | 0.936 | 0.641 | 0.55 | 0.616 | 0.529 | 
2 | A-427 | 1.06 | 1.08 | 1.25 | 1.1 | 0.669 | 0.717 | 0.749 | 0.797 | 0.618 | 0.734
3 | ABC-1 |  |  | 0.793 | 0.703 | 0.373 |  | 0.503 | 0.673 | 0.408 | 0.515
4 | BEN | 0.248 | 0.333 | 0.851 | 0.357 | 0.317 | 0.332 | 0.38 | 0.27 | 0.301 | 0.322
5 | CAL-12T | 0.315 | 0.652 | 0.339 | 0.333 | 0.216 | 0.363 | 0.431 | 0.447 | 0.225 | 0.374
6 | COR-L23 | 0.504 | 0.589 | 0.963 |  | 0.487 | 0.502 | 0.555 | 0.63 | 0.347 | 0.516
7 | COR-L 105 | 0.99 | 0.842 | 0.645 |  | 0.272 | 0.364 | 0.292 | 0.268 | 0.171 | 0.336
8 | ChaGo-K-1 | 0.603 | 0.577 | 0.71 | 0.585 | 0.501 |  | 0.613 | 0.57 | 0.577 | 0.449
9 | EKVX | 0.911 | 0.905 | 0.588 | 0.877 | 0.876 | 0.545 | 0.478 | 0.536 | 0.475 | 0.518
10 | EMC-BAC-2 | 1.26 | 1.24 | 1.21 | 1.28 | 0.951 | 0.341 | 0.337 | 0.347 | 0.39 | 0.309
11 | EPLC-272H | 0.266 | 0.373 | 0.629 | 0.389 | 0.186 | 0.253 | 0.4 | 0.501 | 0.25 | 0.33
12 | H3255 | 1.03 | 0.829 | 0.816 | 0.889 | 0.707 | 0.325 | 0.353 | 0.333 | 0.335 | 0.45
13 | HARA | 0.927 | 0.726 | 0.749 | 0.528 | 0.387 | 0.314 | 0.281 | 0.261 | 0.238 | 0.268
14 | HCC-15 | 0.481 | 0.479 | 0.295 | 0.336 | 0.302 | 0.632 | 0.614 | 0.656 | 0.417 | 0.576
15 | HCC-44 | 1.32 | 1.21 | 1.36 | 0.588 | 0.75 |  |  |  |  | 
16 | HCC-78 |  |  |  |  |  | 0.48 | 0.42 | 0.352 | 0.242 | 0.567
17 | HCC-366 |  |  |  |  |  | 0.828 | 0.642 | 0.74 | 0.601 | 0.552
18 | HCC-827 | 0.834 | 0.486 | 0.756 | 0.797 | 0.614 | 0.33 | 0.34 | 0.439 | 0.457 | 0.403
19 | HOP-62 | 0.932 |  | 0.911 | 0.762 | 0.683 | 0.594 | 0.661 |  | 0.433 | 0.644
20 | LC-2-ad | 1.26 | 0.996 | 1.22 | 0.874 | 0.706 | 0.319 | 0.482 | 0.345 | 0.237 | 0.415
21 | LCLC-97TM1 | 0.715 | 0.87 | 0.833 | 0.813 | 0.85 | 0.813 | 0.856 | 1.01 | 0.87 | 
22 | LCLC-103H | 0.96 | 0.941 | 0.864 | 1.12 | 0.704 | 0.476 | 0.575 | 0.505 | 0.379 | 0.425
23 | LK-2 |  | 0.184 | 0.192 | 0.155 | 0.162 | 0.305 | 0.262 | 0.261 | 0.222 | 
24 | LOU-NH91 | 0.413 | 0.31 | 0.326 | 0.523 | 0.309 | 0.555 | 0.573 | 0.571 | 0.459 | 0.553
25 | LU99A | 0.228 | 0.252 | 0.206 | 0.309 | 0.193 | 0.675 | 0.61 | 0.688 | 0.388 | 0.477
26 | LXF-289 | 0.611 | 0.57 | 0.584 |  | 0.4 | 0.23 | 0.208 | 0.243 | 0.2 | 0.214
27 | NCI-H23 | 0.207 | 0.234 | 0.214 | 0.199 | 0.193 | 0.853 | 0.885 | 0.751 | 0.528 | 0.719
28 | NCI-H322M | 0.609 | 0.823 | 0.797 | 0.927 | 0.68 | 0.249 | 0.289 | 0.232 | 0.19 | 0.246
